# How the values were obtained:
# B16 mouse melanoma cells = experiment: cell viability in the B16 cell-based assay (Viability, B16 IC50); conditions: Mus musculus, B16, B16 cells; concentration causing 50% cell death; values greater than 10 represent a lack of cell death; read-out: Viability, B16 IC50
# In short: (§1)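 Two melanoma lines, mouse B16 and human C32, were treated and surface GM3 quantified by antibody immunofluorescence for IC50. A parallel viability readout gives the concentration killing 50% of cells, with values over 10 indicating no cell death.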
# C32 human melanoma cells = experiment: cell viability in the C32 cell-based assay (Viability, C32 IC50); conditions: Homo sapiens, C32, C32 cells; concentration causing 50% cell death; values greater than 10 represent a lack of cell death; read-out: Viability, C32 IC50
# In short: as §1
# [1] = target: T1, glucosylceramide synthase (Homo sapiens, UniProt Q16739); experiment: microsomal assay measuring conversion of ceramide to glucosylceramide by HPLC (GCS IC50); format: biochemical; conditions: concentration causing 50% inhibition of glucosylceramide synthase activity
# T1 construct: Microsomes were isolated from A375 human melanoma cells; endogenous in cells; host or cells: A375 human melanoma cells (microsomal fraction, 100,000 g pellet)
# T1 sequence (Q16739 1-394): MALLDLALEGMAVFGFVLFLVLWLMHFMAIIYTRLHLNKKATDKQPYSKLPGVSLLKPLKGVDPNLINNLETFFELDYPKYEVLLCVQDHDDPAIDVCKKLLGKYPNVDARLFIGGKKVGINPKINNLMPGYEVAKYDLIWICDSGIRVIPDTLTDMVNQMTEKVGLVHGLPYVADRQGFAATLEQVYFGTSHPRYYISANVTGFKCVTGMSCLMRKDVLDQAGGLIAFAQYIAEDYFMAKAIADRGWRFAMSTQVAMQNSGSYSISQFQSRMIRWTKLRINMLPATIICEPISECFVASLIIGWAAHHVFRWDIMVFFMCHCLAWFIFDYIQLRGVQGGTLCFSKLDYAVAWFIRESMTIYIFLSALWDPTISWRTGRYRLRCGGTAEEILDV
# In short: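 Microsomal preparation assayed for glucosylceramide synthase by direct HPLC measurement of ceramide conversion to glucosylceramide. GCS IC50 is the compound concentration giving 50% inhibition of enzyme activity.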
# [2] = test system: GM3 expression on the cell surface, C32 human melanoma cells; experiment: cell based phenotypic assay, cell surface GM3 by antibody mediated immunofluorescence, C32 (GM3 C32 IC50); conditions: Homo sapiens, C32 human melanoma cells; 50% inhibition of GM3 expression on the cell surface; read-out: GM3 C32 IC50
# In short: as §1
# [3] = test system: GM3 expression on the cell surface, B16 mouse melanoma cells; experiment: cell based phenotypic assay, cell surface GM3 by antibody mediated immunofluorescence, B16 (GM3 B16 IC50); conditions: Mus musculus, B16 mouse melanoma cells; 50% inhibition of GM3 expression on the cell surface; read-out: GM3 B16 IC50
# In short: as §1
SMILES,IC50 (B16 mouse melanoma cells),IC50 (C32 human melanoma cells),IC50 [1],IC50 [2],IC50 [3]
"COCCCOc1ccc(-c2ccnc(N3CCC(C(=O)NC4CN5CCC4CC5)CC3)n2)cc1 (stereo not shown) [Example 72, 1-(4-(4-(3-Methoxypropoxy)phenyl)pyrimidin-2-yl)-N-(quinuclidin-3-yl)piperidine-4-carboxamide]",8.63 µM,464 nM,1.16 nM,0.26 nM,79.5 nM
"COCc1ccc(-c2ccnc(N3CCC(C(=O)NC4(C)CN5CCC4CC5)CC3)n2)cc1 (stereo not shown) [Example 73, 1-(4-(4-(Methoxymethyl)phenyl)pyrimidin-2-yl)-N-(3-methylquinuclidin-3-yl)piperidine-4-carboxamide]",4.64 µM,631 nM,3.46 nM,0.25 nM,47.4 nM
"COCCOCc1ccc(-c2ccnc(N3CCC(C(=O)NC4(C)CCN5CCC4CC5)CC3)n2)cc1 (stereo not shown) [Example 74, 1-(4-(4-((2-Methoxyethoxy)methyl)phenyl)pyrimidin-2-yl)-N-(4-methyl-1-azabicyclo[3.2.2]nonan-4-yl)piperidine-4-carboxamide]",≥ 10 µM,215 nM,12.8 nM,0.71 nM,32.5 nM
"COCc1ccc(-c2ccnc(N3CCC(F)(C(=O)NC4(C)CCN5CCC4CC5)CC3)n2)cc1 (stereo not shown) [Example 75, 4-Fluoro-1-(4-(4-(methoxymethyl)phenyl)pyrimidin-2-yl)-N-(4-methyl-1-azabicyclo[3.2.2]nonan-4-yl)piperidine-4-carboxamide]",5.27 µM,316 nM,2.83 nM,0.383 nM,48.9 nM
"COCCCOc1ccc(-c2ccnc(N3CCC(F)(C(=O)NC4(C)CN5CCC4CC5)CC3)n2)cc1 (stereo not shown) [Example 76, 4-Fluoro-1-(4-(4-(3-methoxypropoxy)phenyl)pyrimidin-2-yl)-N-(3-methylquinuclidin-3-yl)piperidine-4-carboxamide]",3.87 µM,1000 nM,1.34 nM,0.141 nM,58.7 nM
"COCCOCc1ccc(-c2nc(N3CCC(F)(C(=O)NC4(C)CCN5CCC4CC5)CC3)ncc2F)cc1 (stereo not shown) [Example 77, 4-Fluoro-1-(5-fluoro-4-(4-((2-methoxyethoxy)methyl)phenyl)pyrimidin-2-yl)-N-(4-methyl-1-azabicyclo[3.2.2]nonan-4-yl)piperidine-4-carboxamide]",3.76 µM,316 nM,1.67 nM,0.316 nM,86.3 nM
"COCc1ccc(-c2ccnc(N3CCC(F)(C(=O)NC4(C)CN5CCC4CC5)CC3)n2)cc1 (stereo not shown) [Example 80, 4-Fluoro-1-(4-(4-(methoxymethyl)phenyl)pyrimidin-2-yl)-N-(3-methylquinuclidin-3-yl)piperidine-4-carboxamide]",≥ 10 µM,215 nM,4 nM,0.525 nM,68.5 nM
"COCc1ccc(-c2ccnc(N3CCC(F)(C(=O)N[C@]4(C)CN5CCC4CC5)CC3)n2)cc1 [Example 81, (S)-4-Fluoro-1-(4-(4-(methoxymethyl)phenyl)pyrimidin-2-yl)-N-(3-methylquinuclidin-3-yl)piperidine-4-carboxamide]",≥ 10 µM,316 nM,2.3 nM,0.222 nM,48.1 nM
"COCCCOc1ccc(-c2ccnc(N3CCC(F)(C(=O)NC4(C)CCN5CCC4CC5)CC3)n2)cc1 (stereo not shown) [Example 82, 4-Fluoro-1-(4-(4-(3-methoxypropoxy)phenyl)pyrimidin-2-yl)-N-(4-methyl-1-azabicyclo[3.2.2]nonan-4-yl)piperidine-4-carboxamide]",2.79 µM,1000 nM,1.26 nM,0.128 nM,42.1 nM
"COCCOCc1ccc(-c2ccnc(N3CCC(F)(C(=O)NC4(C)CN5CCC4CC5)CC3)n2)cc1 (stereo not shown) [Example 83, 4-Fluoro-1-(4-(4-((2-methoxyethoxy)methyl)phenyl)pyrimidin-2-yl)-N-(3-methylquinuclidin-3-yl)piperidine-4-carboxamide]",≥ 10 µM,1000 nM,13.4 nM,1.13 nM,119 nM
"COCCOCc1ccc(-c2ccnc(N3CCC(F)(C(=O)N[C@]4(C)CN5CCC4CC5)CC3)n2)cc1 [Example 84, (S)-4-Fluoro-1-(4-(4-((2-methoxyethoxy)methyl)phenyl)pyrimidin-2-yl)-N-(3-methylquinuclidin-3-yl)piperidine-4-carboxamide]",≥ 10 µM,1000 nM,5.35 nM,0.621 nM,90.3 nM
"COCCOc1ccc(-c2ccnc(N3CCC(F)(C(=O)NC4(C)CN5CCC4CC5)CC3)n2)cc1 (stereo not shown) [Example 85, 4-Fluoro-1-(4-(4-(2-methoxyethoxy)phenyl)pyrimidin-2-yl)-N-(3-methylquinuclidin-3-yl)piperidine-4-carboxamide]",≥ 10 µM,316 nM,10.5 nM,0.389 nM,79.9 nM
"COCCOc1ccc(-c2ccnc(N3CCC(F)(C(=O)N[C@]4(C)CN5CCC4CC5)CC3)n2)cc1 [Example 86, (S)-4-Fluoro-1-(4-(4-(2-methoxyethoxy)phenyl)pyrimidin-2-yl)-N-(3-methylquinuclidin-3-yl)piperidine-4-carboxamide]",≥ 10 µM,1000 nM,3.46 nM,0.241 nM,48 nM
"O=C(NC1CN2CCC1CC2)C1(F)CCN(c2nccc(-c3ccc(OCCF)cc3)n2)CC1 (stereo not shown) [Example 87, 4-Fluoro-1-(4-(4-(2-fluoroethoxy)phenyl)pyrimidin-2-yl)-N-(quinuclidin-3-yl)piperidine-4-carboxamide]",8.91 µM,215 nM,1.91 nM,0.177 nM,64.3 nM
"O=C(N[C@@H]1CN2CCC1CC2)C1(F)CCN(c2nccc(-c3ccc(OCCF)cc3)n2)CC1 [Example 88, (S)-4-Fluoro-1-(4-(4-(2-fluoroethoxy)phenyl)pyrimidin-2-yl)-N-(quinuclidin-3-yl)piperidine-4-carboxamide]",≥ 10 µM,1000 nM,1.68 nM,0.252 nM,56.8 nM
"COCCOCc1ccc(-c2ccnc(N3CCC(F)(C(=O)NC4(C)CCN5CCC4CC5)CC3)n2)cc1 (stereo not shown) [Example 89, 4-Fluoro-1-(4-(4-((2-methoxyethoxy)methyl)phenyl)pyrimidin-2-yl)-N-(4-methyl-1-azabicyclo[3.2.2]nonan-4-yl)piperidine-4-carboxamide]",9.47 µM,316 nM,8.23 nM,1.17 nM,109 nM
"CC1(NC(=O)C2(F)CCN(c3nccc(-c4ccc(OCCF)cc4)n3)CC2)CCN2CCC1CC2 (stereo not shown) [Example 90, 4-Fluoro-1-(4-(4-(2-fluoroethoxy)phenyl)pyrimidin-2-yl)-N-(4-methyl-1-azabicyclo[3.2.2]nonan-4-yl)piperidine-4-carboxamide]",3.06 µM,215 nM,2.26 nM,0.0953 nM,13.4 nM
"COCCOc1ccc(-c2nc(N3CCC(F)(C(=O)NC4(C)CCN5CCC4CC5)CC3)ncc2F)cc1 (stereo not shown) [Example 91, 4-Fluoro-1-(5-fluoro-4-(4-(2-methoxyethoxy)phenyl)pyrimidin-2-yl)-N-(4-methyl-1-azabicyclo[3.2.2]nonan-4-yl)piperidine-4-carboxamide]",2.66 µM,100 nM,2.04 nM,0.117 nM,71.4 nM
"CC1(NC(=O)C2(F)CCN(c3nccc(-c4ccc(OCCF)cc4)n3)CC2)CN2CCC1CC2 (stereo not shown) [Example 92, 4-Fluoro-1-(4-(4-(2-fluoroethoxy)phenyl)pyrimidin-2-yl)-N-(3-methylquinuclidin-3-yl)piperidine-4-carboxamide]",6.83 µM,100 nM,1.46 nM,0.106 nM,29 nM
"COCCOc1ccc(-c2ccnc(N3CCC(F)(C(=O)NC4(C)CCN5CCC4CC5)CC3)n2)cc1 (stereo not shown) [Example 93, 4-Fluoro-1-(4-(4-(2-methoxyethoxy)phenyl)pyrimidin-2-yl)-N-(4-methyl-1-azabicyclo[3.2.2]nonan-4-yl)piperidine-4-carboxamide]",3.96 µM,316 nM,3.96 nM,0.261 nM,43.9 nM

# Source: patent US12060349B2, “Glucosylceramide synthase inhibitors” (Genzyme Corporation, priority 2012, dated 2024)
